The values below come from patent US20250295776A1, “CLEAVAGE RESISTANT CD16 CONSTRUCTS AND USES THEREOF” (Celularity Inc., priority 2022, published 2025).

The test system of data set [1] is CD34 cells. Nature of the data set: CD34 cell expansion at Day 14 of the culture with CRL compounds. Format: cell-based, human. As to conditions: 10 μM. On the procedure: (§1) For biological testing, the compounds were provided to culture to evaluate their effects on NK cell expansion and differentiation. Specifically, donors of CD34+ cells (StemCell Technology) were thawed and expanded in vitro following NK culture protocol. During the first 14 days of the culture, each CRL compounds was dissolved in DMSO and added to the culture at 10 μM concentration. SR1 (at 10 μM) served as a positive control compound, while DMSO alone without any compound served as a negative control. At the end of the culture on Day 35, cell expansion, natural killer (NK) cell differentiation and cytotoxicity of the cells against K562 tumor cell line were characterized. Due to the large number of the compounds, the testing was performed in two experiments, CRL1-11 and CRL 12-22. The same donors were used for each experiment. Positive and negative controls were also included in both experiments.

Data set [2] relates to CD34+ cells. The data set is described as follows: NK cell expansion in 35-day three-stage culture with CRL compounds. Format: cell-based, human. Conditions: for cell expansion compared to SR1: 10 μM, Day 35; for expansion, differentiation and cytotoxicity profiles compared to SR1: PNK-007 culture.
Description: (§2) UCB CD34+ cells were cultivated in presence of cytokines including thrombopoietin, SCF, Flt3 ligand, IL-7, IL-15 and IL-2 for 35 days to produce three-stage NK cells, as described in Example 1. Multi-color flow cytometry was used to determine the phenotypic characteristics of three-stage NK cells.
as §1

The test system of data set [3] is K562 tumor cell line. The data set is described as follows: Cytotoxicity of compound-cultured cells against K562. As to conditions: 10:1 E:T ratio. It counts as cell-based. As to the method:
as §1
Cytotoxicity assay was run using compound cultured cells against K562 tumor cells at 10:1 effector to target ratio (FIGS. 5A-5B) to evaluate cell functions.

Data set [4] deals with CD34+ cells. The data set is described as follows: NK cell differentiation of compound-cultured cells (flow cytometry). Format: cell-based, human.
Description: as §2, §1
On the technique in general: Flow cytometry measures light scatter and fluorescence of single cells or particles in a stream.

The subject of data set [5] is HER2+ NCI-N87 gastric tumor cell line. Nature of the data set: Cytokine secretion assay (Luminex) of CD16 variants transduced CYNK cells with NCI-N87. It counts as cell-based. On the procedure:
Two-day in vitro recovered CYNK cells were used in this assay as the effector cells. The HER2^+ NCI-N87 gastric tumor cell line was used as the target cell. […] The supernatant was then collected after 24 h and used for downstream analysis. The cytokine concentrations were determined by Luminex analysis using a customer selected MILLIPLEX MAP magnetic bead kit (EMD Millipore, Billerica, MA, Cat #HCD8MAG-15K-07 for GM-CSF, TNF-α, and IFN-γ) according to the protocol provided by the manufacturer. The data were analyzed using Belysa software (Millipore Sigma).

Data set [6] concerns human placental CD34+ cells. The data set is described as follows: Fold expansion of CD16 variants transduced CYNK cells. Format: cell-based. From the text: (§3) Human placental CD34+ cells were transduced with a lentivirus vector expressing a CD16 variants as indicated and cultured for 35 days in the presence of cytokines, including thrombopoietin, SCF, Flt3 ligand, IL-7, IL-15 and IL-2, to generate CYNK cells.

Data set [7] relates to HER2+ NCI-N87 gastric tumor cell line. Nature of the data set: xCELLigence real time cell analysis ADCC assay with trastuzumab against NCI-N87. Format: cell-based. As to conditions: 4 h and 24 h; E:T ratio of 2:1. As to the method:
The HER2^+ NCI-N87 gastric tumor cell line was used as the target cells. CD16 variant transduced CYNK cells were thawed followed by two days recovery were used as the effector cells. […] Target cells were seeded at 8×10^4 cells/well in the 96-well plates in 100 μl assay buffer for 24 hours at 37° C. in 5% CO2. […] CYNK cells were added post 30 minutes antibodies incubation at 37° C. with 5% CO2.
The xCELLigence real time cell analysis (RTCA) system (ACEA Biosciences, San Diego, CA) was used for the determination of the ADCC response mediated by the combination of antibody and effector cells. This system can determine the real time proliferation or cell death in each well of a specialized 96-well plate with electrodes attached to the bottom E-plate by measuring cell adherence as determined by the impedance of the electrical signal that passes through the plate. The more cells that are attached to the bottom of the well the higher the resulting impedance or cell index that is measured. The cell index over time in wells with effector cells, antibody, and target is compared to the cell index in wells with target alone and is converted to a percent cytolysis.
Target cells were incubated with the effector cells in the presence of the antibodies in 200 μl final volume for 24 hours. The xCELLigence software was then used to determine the percent cytotoxicity at 4 and 24 hours of co-culture time.

Data set [8] has as its system CD16. The data set is described as follows: CD16 expression of CD16 variants transduced CYNK cells (flow cytometry). Format: cell-based, human. On the procedure: as §3
The phenotype of CYNK cells was analyzed by multicolor flow cytometry. CYNK cells were washed and stained with fluorochrome-conjugated antibodies diluted in staining buffer [2% fetal bovine serum (FBS) in phosphate buffered saline (PBS)] according to the manufacturer's protocol. Dead cells were labelled with the Live/Dead Fixable Aqua Stain (Invitrogen, Cat #L34957) and gated out. Data were acquired on BD Fortessa X20 flow cytometer (BD Biosciences) and were analyzed using FlowJo software. The data were expressed as % positive cells gated under CD56+CD3-Aqua− single cells based on the viability staining used. Setting of the % positive gate was done using the corresponding isotype-stained samples as controls.

For data set [9], the system named is CD16. The data set is described as follows: Shedding assay of CD16 variants transduced CYNK cells (PMAi 2 h). It counts as cell-based, human. Conditions: for CD16 shedding percentage: post 2 h PMAi stimulation, n=6 donors, Lentigen LVV. On the procedure:
Non-transduced (NT) CYNK cells were used as a control. After 2-hour stimulation, cells from each treatment condition were then washed twice with FACS buffer (PBS with 0.5 mM EDTA and 2% FBS) and incubated human Fc block (BD Biosciences, Cat #564220) at room temperature for 10 minutes. Staining was then performed with anti-human CD16 PE (BD Biosciences, Cat #556619), anti-human CD56 APC (BD Biosciences, Cat #555518), and anti-human CD3 APC-H7 (BD Biosciences, Cat #560176), or with the corresponding isotype controls for 30 minutes at 4° C. Following washing 2× with FACS buffer the viability stain 7-Aminoactinomycin D (7-AAD) (BD Biosciences, Cat #559925) was added to all stained samples and incubated for ten minutes prior to data acquisition. The data was acquired on a […] (BD Biosciences, San Jose, CA) and analyzed in FlowJo (Tree Star, Ashland, OR). The data were expressed as % CD56^+CD16+ cells gated under 7-AAD^− cells. Setting of the % positive gate was done using isotype-stained samples as controls.

Data set [10] has as its system CD16. The data set is described as follows: CD16VP shedding assay (PMA/ionomycin). It counts as cell-based, human.
Data set [11] deals with CD16. Nature of the data set: NK surface markers and CD16 expression of PNK-CD16VP cells (flow cytometry, day 35). Format: cell-based, human. As to conditions: n=8. On the procedure: Non-transduced PNK cells (NT) served as a control. […] IgG was used as ADCC control. In vivo anti-tumor activity was assessed in a Daudi disseminated Xenograft model in NSG mice. […] Tumor burden in mice was monitored by Bioluminescence Imaging (BLI). Statistical differences between the groups were calculated using paired t-test using Prism.
Cell Expansion and Characterization: Cell expansion was recorded during the culture process.

Setting [12] is: in the presence of trastuzumab and NCI-N87.
The mark [13] stands for this setting: MOI 200, Myc tag, Sirion Bio LVV.
Setting [14] is: in the presence of Trastuzumab, E:T ratio of 1:1.

For `Cc1cncc(-c2nc(NCCc3c[nH]c4ccccc34)c3occc3n2)c1` [CRL20, N-(2-(1H-indol-3-yl)ethyl)-2-(5-methylpyridin-3-yl)furo[3,2-d]pyrimidin-4-amine], the CD34 cell expansion result in data set [1] is listed as “achieved the highest CD34 cell expansion”. In data set [2], the “cell expansion compared to SR1” value was “supported cell expansion the best”; the “expansion, differentiation and cytotoxicity profiles compared to SR1” value is listed as “very similar”.

As to `Cc1cncc(-c2nc(NCCc3c[nH]c4ccccc34)c3scc(C(C)C)c3n2)c1` [CRL21, N-(2-(1H-indol-3-yl)ethyl)-7-isopropyl-2-(5-methylpyridin-3-yl)thieno[3,2-d]pyrimidin-4-amine], in data set [3], the “killing activities compared to cells cultured with SR1” value is recorded as “increased killing activities”. The “cell expansion compared to SR1” value in [2] is reported as “slightly less expansion”. For the same molecule, the “CD56+/CD11a+ subpopulation compared to SR1” value in data set [4] is “increased”.

As to `CC(C)c1csc2c(NCCc3c[nH]c4ccccc34)nc(-c3cncc(C#N)c3)nc12` [CRL17, 5-(4-((2-(1H-indol-3-yl)ethyl)amino)-7-isopropylthieno[3,2-d]pyrimidin-2-yl)nicotinonitrile], in data set [3], the “killing activities compared to cells cultured with SR1” value was “increased killing activities”. Further, the “cell expansion compared to SR1” value in data set [2] is listed as “slightly less expansion”. Also, the “CD56+/CD11a+ subpopulation compared to SR1” value in [4] is on record as “increased”.

For the molecule `CC(C)c1csc2c(NCCc3c[nH]c4ccccc34)nc(-c3cncc(F)c3)nc12` [CRL18, N-(2-(1H-indol-3-yl)ethyl)-2-(5-fluoropyridin-3-yl)-7-isopropylthieno[3,2-d]pyrimidin-4-amine], the “killing activities compared to cells cultured with SR1” value in [3] is reported as “increased killing activities”. Also, the “cell expansion compared to SR1” value in data set [2] is “slightly less expansion”. For the same molecule, the “CD56+/CD11a+ subpopulation compared to SR1” value in [4] is on record as “increased”.

For “Construct #1: CD16 variant: 176 V (also referred to as 158 V); 197 Glycine (G); with or without Myc tag”, in data set [5] (setting [12]), the “GM-CSF secretion compared to NT” value is listed as “significant difference”; the “cytokine secretion (IFNg, TNFa and GM-CSF) compared to CD16VP” value is recorded as “no significant difference”. Besides, the “fold expansion compared to CD16VP and NT” value in [6] (Lentigen LVV, n=6 donors) was “comparable fold expansion”. Besides, in data set [6] (Myc tag, Sirion Bio LVV), the “fold expansion compared to CD16VP” value is listed as “comparable fold expansion”. Moreover, in data set [7], the “cytotoxicity change (CYNK+Trastuzumab − CYNK+IgG) compared to NT” value was “significant difference”. The “CD16 expression at Day10, Day35 and post thaw compared to CD16VP” value in data set [8] (Lentigen LVV, 6 donors) was “comparable CD16 expression”. In data set [8] (setting [13]), the “CD16 expression at Day10, 21, 28, 35 and 40 compared to CD16VP” value is recorded as “comparable CD16 expression”; the “CD16 expression at Day 10 compared to CD16VP” value is listed as “comparable CD16 expression”. Moreover, in data set [9] (Myc tag, Sirion Bio LVV), the “CD16 shedding post PMAi stimulation” value was “trend of shedding resistance”. For the same molecule, in data set [9], the CD16 shedding percentage is 9.4%±8.5%.

As to `Fc1cncc(-c2nc(NCCc3c[nH]c4ccccc34)c3occc3n2)c1` [CRL19, N-(2-(1H-indol-3-yl)ethyl)-2-(5-fluoropyridin-3-yl)furo[3,2-d]pyrimidin-4-amine], the CD34 cell expansion result in [1] is “achieved the highest CD34 cell expansion”. In data set [2], the “cell expansion compared to SR1” value was “supported cell expansion the best”; the “expansion, differentiation and cytotoxicity profiles compared to SR1” value is given as “very similar”.

For `N#Cc1cncc(-c2nc(NCCc3c[nH]c4ccccc34)c3occc3n2)c1` [CRL22, 5-(4-((2-(1H-indol-3-yl)ethyl)amino)furo[3,2-d]pyrimidin-2-yl)nicotinonitrile], in data set [1], the CD34 cell expansion result is recorded as “achieved the highest CD34 cell expansion”. In data set [2], the “cell expansion compared to SR1” value is “supported cell expansion the best”; the “expansion, differentiation and cytotoxicity profiles compared to SR1” value is listed as “very similar”.

As for “CD16VP: high affinity (158 Val) and proteinase cleavage resistant (197Pro) CD16 variant”, the “CD16VP expression after activation” value in data set [10] is “resistant to shedding”. In data set [5] (setting [14]), the “GM-CSF secretion against NCI-N87” value is given as 5.4 ± 2.7 ng/1 × 10^6 cells, the “IFNg secretion against NCI-N87” value is 1.8 ± 1.6 ng/1 × 10^6 cells and the “TNFa secretion against NCI-N87” value turned out to be 0.8 ± 0.3 ng/1 × 10^6 cells. Also, the “GM-CSF secretion compared to NT” value in data set [5] (setting [12]) is listed as “significant difference”. Also, the “cytotoxicity change (CYNK+Trastuzumab − CYNK+IgG) compared to NT” value in data set [7] is reported as “significant difference”. Further, in [11], the CD16 expression is given as around 65%. The CD16 expression in data set [8] (6 donors) is reported as 61.9% ± 15.4%. Besides, the “CD16 shedding resistance post PMAi stimulation” value in data set [9] (6 donors) is listed as “Yes”. Further, in [9], the CD16 shedding percentage is 4.3%±3.0%.
